Data on ten molecules can be found in US20150231209A1, “STIMULATION OF OVARIAN FOLLICLE DEVELOPMENT AND OOCYTE MATURATION” (THE BOARD OF TRUSTEES OF THE LELAND STANFORD JUNIOR …, priority 2012, published 2015).

The term IC50 denotes the concentration that gives 50% inhibition.

In one assay the test system is ovarian grafts. As to the kind of experiment: Ovarian grafting under kidney capsule of FSH-treated hosts: graft weights and follicle counting. The assay is classed as in vivo, mice. How it is done: FIG. 3. Additive effects of Hippo signaling disruption and Akt stimulation promoted secondary follicle growth. A) Secondary follicles are responsive to IVA treatment. Secondary follicles (115 um in diameter) were isolated from mice at day 10 of age and cultured in vitro with the standard IVA protocol (first day with bPV(hopic) at 3 mM and 740YP at 15 ug/ml, followed by one more day with 740YP alone), followed by treatment with daily FSH (100 ng/ml) for two more days (IVA+FSH). The control groups were either treatment with media alone for four days or treated with the IVA reagent for two days followed by media alone (IVA alone). B) Ovarian fragmentation and IVA treatment led to additive effects on ovarian weight gain and secondary follicle growth. Paired ovaries from mice at day 10 of age were fragmented into three pieces. Fragments from one side were treated with the IVA protocol (bpV(hopic) at 30 uM and 740YP at 150 ng/ml for one day, followed by one more day with 740YP only) whereas fragments from the contralateral side were incubated in media alone. Ovarian fragments were then allo-transplanted into kidney capsules of adult ovariectomized mice with hosts injected with FSH (daily at 1 IU/animal). Five 5 days later, ovarian grafts were retrieved, fixed and weighted. Left panel: graft weights; right panel: Follicle dynamics of grafted ovarian fragments. Percentages of follicles at different stages were determined based on serial sections of grafts. C, Follicle dynamics before and after grafting of intact and fragmented murine ovaries with or without treatment with Akt stimulators. Left: total follicle numbers, Right: follicle dynamics. n=4. Same letter symbols indicate significant differences (p<0.05). D-F. Vitrified human cortical strips were thawed and fragmented into cubes before treatment with Akt stimulators for 2 days followed by grafting into immune-deficient mice for 4 weeks. D. Cortical strips before grafting. Arrow: a secondary follicle, arrowheads: primordial/primary follicles. Scale bar, 100 μm. E. A kidney graft in situ (left) and after isolation (right), showing an antral follicle. F. Histology of two large antral follicles with the side view of one showing an oocyte at the germinal vesicle stage (arrow). Scale bar, 1 mm. Mean±SEM; * p<0.05.
(§1) FIG. 7. Pre-treatment with verteporfin and CCN2 antibodies suppressed fragmentation-induced ovarian growth. A, Pretreatment with verteporfin suppressed fragmentation-induced increases in CCN2, but not AMH, transcript levels. Juvenile mice were injected i.p. with verteporfin for 3 h before retrieving ovaries for fragmentation. At 4 h after incubation, transcript levels for CCN2 and AMH were determined by real-time RT-PCR. n=6-12. […] Ovaries from juvenile mice pre-injected with verteporf in for 3 h were fragmented and incubated for 1 h before grafting into FSH-treated hosts for 5 days followed by determination of graft weights. Numbers in parentheses are number of samples used. C, Follicle dynamics of intact and fragmented ovarian grafts from animals with or without verteporf in (VP) pretreatment. n=3-5. D, Incubation of fragmented ovaries with CCN2 antibodies suppressed ovarian weight increases. Paired ovaries were fragmented into 3 pieces followed by incubation with CCN2 antibodies or non-immune-IgG for 18 h before grafting for 5 days. Mean±SEM; *p<0.05.
Left upper panel: Paired ovaries from day 10 mice were treated with or without JASP (10 μM) for 30 min. before analyses of F- and G-actin content. Left lower panel: Real-time RT-PCR analyses of CCN2 transcript levels after 30 min. exposure to JASP. Right panel: Immunoblotting analyses of CCN2 protein levels after 30 min. treatment with JASP. Upper panel: Immunoblotting analyses. Lower panel: quantitative analyses of densitometric scanning data. Numbers in parentheses are number of samples used. * p<0.05. […]

Another assay deals with ovaries from day 10 mice. Briefly: Ovarian explant cultures: ovarian weight and follicle dynamics. The assay is classed as cell-based. The conditions noted are these: for ovarian explant weights: explants from day 10 mice cultured with CCN growth factors for 4 days. How it is done:
FIG. 2. […] A, Ovarian fragmentation increased F-actin levels. Paired ovaries from day 10 mice were cut into 3 pieces or kept intact before immunoblotting analyses of F- and G-actin levels (upper panel). Lower panel: F- to G-actin ratios. N=6-11. B, Ovarian fragmentation decreased phospho-YAP(pYAP) levels and pYAP to total YAP ratios. Paired ovaries with or without cutting were incubated for 1 h, followed by immunoblotting. Left panel: representative immunoblots; Right panel: ratios of different antigens. n=8 pairs. C, Ovarian fragmentation increased expression of CCN growth factors and BIRC apoptosis inhibitors. Paired ovaries with or without cutting were incubated for 1 h […] before analyses of transcript levels normalized by GAPDH. Intact ovaries: solid lines; pooled 3 pieces: dashed lines. n=10-15. D, Ovarian fragmentation increased CCN2 proteins. Paired ovaries with or without cutting were incubated for 3-5 h before immunoblotting. Upper panel: representative blots; lower panel: quantitative analyses. N=3-5. E, Treatment with CCN2, 3, 5, and 6 increased ovarian explant weights. Explants from day 10 mice were cultured with different CCN growth factors for 4 days before weighing. n=5-6. Mean±SEM; * p<0.05. IN=Intact; PI=Pieces.
FIG. 6. Increased expression of CCN growth factors and BIRO inhibitors after ovarian fragmentation and the ability of CCN growth factors to promote follicle development. A, Ovarian fragmentation without subsequent grafting increased the expression of key CCN growth factors (CCN2, 3, 5, and 6) and apoptosis inhibitors (BIRC1 and 7). Paired ovaries from day 10 mice with or without cutting into 3 pieces were incubated for up to 7 h before analyses of transcript levels for different genes. Intact ovaries: solid lines; three pieces: dashed lines. n=10-15. B, Increases in CCN2 expression in somatic cells of fragmented ovaries. Paired ovaries from day 10 mice with or without cutting into 3 pieces were cultured for 1 h and then transplanted under kidney capsules. At 3 h after transplantation, ovaries were dissected followed by isolation of oocytes and somatic cells as previously described (2). CCN2 and GAPDH mRNA levels were measured by real-time RT-PCR (n=4). *, P<0.05 vs intact. C. Treatment with CCN growth factors promoted preantral follicle development in ovarian explants. Following explant cultures with different CCN growth factors, follicle dynamics were determined by counting the percentages of follicles at different developmental stages. Mean±SEM; *p<0.05, n=5.
Ovaries from day 10 mice were placed on culture plate insert (Millipore) and cultured in DMEM/F12 containing 0.1% BSA, 0.1% Albumax II, insulin-transferrin-selenium, 0.05 mg/ml L-ascorbic acid and penicillin-streptomycin for 4 days with medium changes after 2 days of culture as described. At the end of culture, ovarian weight was measured and some of the ovaries were embedded for histological analyses of follicle dynamics.
We tested the ability of S1P to promote follicle growth. […] We hypothesized that S1P acts through its receptors in granulosa cells to trigger actin polymerization, disrupt Hippo signaling and promote follicle growth.

For a further assay, the system named is oocytes. The conditions noted are these: intrabursal treatment; cited from earlier work.
A further assay deals with PTEN (Homo sapiens, UniProt P60484). The conditions noted are these: read-out: IC50, inhibits PTEN; cited from earlier work.
Chain of PTEN (P60484 whole entry, the tested form may be a part): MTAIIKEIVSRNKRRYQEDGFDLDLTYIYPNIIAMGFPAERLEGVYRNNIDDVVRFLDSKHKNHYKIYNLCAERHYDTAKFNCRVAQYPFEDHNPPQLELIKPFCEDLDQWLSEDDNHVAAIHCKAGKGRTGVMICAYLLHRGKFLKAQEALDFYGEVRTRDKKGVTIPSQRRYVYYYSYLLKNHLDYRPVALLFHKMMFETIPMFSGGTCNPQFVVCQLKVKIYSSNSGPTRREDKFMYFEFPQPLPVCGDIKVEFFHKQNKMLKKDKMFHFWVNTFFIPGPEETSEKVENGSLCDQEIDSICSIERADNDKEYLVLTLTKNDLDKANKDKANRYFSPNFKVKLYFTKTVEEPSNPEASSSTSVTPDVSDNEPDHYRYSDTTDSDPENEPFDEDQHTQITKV
A further assay concerns AMH transcripts. As to the kind of experiment: Real-time RT-PCR of AMH transcripts after verteporfin pretreatment and ovarian fragmentation. The assay is classed as in vivo. The conditions noted are these: day 10 mice injected i.p. for 3 h before fragmentation; 4 h after incubation. How it is done: as §1
(§2) Roles of Hippo signaling and CCN2 in fragmentationinduced follicle growth: YAP has no transcriptional activity and its actions are dependent on downstream transcriptional factors. […]

For another assay, the system named is CCN2 transcripts. As to the kind of experiment: Real-time RT-PCR of CCN2 transcripts after verteporfin pretreatment and ovarian fragmentation. In kind it is in vivo. The conditions noted are these: day 10 mice injected i.p. for 3 h before fragmentation; 4 h after incubation. How it is done:
as §1, §2
In general terms: Real-time PCR tracks product formation cycle by cycle.

Setting [1] is: pretreatment for 3 h, grafting 5 days.

As for `CCCCCCCCCCCCC/C=C/[C@@H](O)[C@@H](N)COP(=O)(O)O` [S1P, sphingosine 1-phosphate], the graft weights entry in the assay on ovarian grafts (6 μM S1P for 18 h, grafting into adult ovariectomized hosts for 5 days) was “increases in graft weights”. Moreover, in the assay with ovaries from day 10 mice (6 μM, 4 days, ovaries from day 10 mice), the “ovarian weights in explant culture” value was “major increases in ovarian weights”. For the same molecule, the “oocyte apoptosis induced by X-irradiation” value in the assay on oocytes is given as “suppressed”.
On to “dipotassium bisperoxo(5-hydroxypyridine-2-carboxyl)oxovanadate (V)”, for which, on PTEN, the half-maximal inhibitory concentration (IC50) was 14 nM.
Take `O=C([O-])c1ccccn1.OO.OO.[K+].[K+].[OH-].[V]` [dipotassium bisperoxo(picolinato)oxovanadate (V)]: the IC50 at PTEN was 31 nM.
Take `OO.OO.[K+].[OH-].[V].c1cnc2c(c1)ccc1cccnc12` [potassium bisperoxo (1,10-phenanthroline)oxovanadate (V)]: on PTEN, the IC50 was 38 nM.
For the molecule verteporfin, in the assay with ovarian grafts (pretreatment for 3 h, fragmentation, grafting into FSH-treated hosts for 5 days), the “graft weights, intact versus fragmented pairs” value is given as “no significant changes”. In addition, in the assay on ovarian grafts (setting [1]), the antral/preovulatory follicles result is listed as “smaller suppression”, the “fragmentation induced increases in late secondary follicles” value is on record as “prevented” and the “total follicles in grafts” value is on record as “no loss of total follicles”. The “transcripts for anti-Müllerian hormone (AMH)” value in the assay on AMH transcripts was “without affecting”. The “fragmentation-induced increases in CCN2 transcripts” value in the assay on CCN2 transcripts is given as “blocked”.
In the case of “potassium bisperoxo(bipyridine)oxovanadate (V)”, the 50% inhibitory concentration (IC50) on PTEN was 18 nM.

B1: CCN6: CCN growth factor protein (protein, UniProt O95389 24-354, looked up)
Cellular communication …: TGPLDTTPEGRPGEVSDAPQRKQFCHWPCKCPQQKPRCPPGVSLVRDGCGCCKICAKQPGEICNEADLCDPHKGLYCDYSVDRPRYETGVCAYLVAVGCEFNQVHYHNGQVFQPNPLFSCLCVSGAIGCTPLFIPKLAGSHCSGAKGGKKSDQSNCSLEPLLQQLSTSYKTMPAYRNLPLIWKKKCLVQATKWTPCSRTCGMGISNRVTNENSNCEMRKEKRLCYIQPCDSNILKTIKIPKGKTCQPTFQLSKAEKFVFSGCSSTQSYKPTFCGICLDKRCCIPNKSKMITIQFDCPNEGSFKWKMLWITSCVCQRNCREPGDIFSELKIL
As for B1, the ovarian explant weights result in the assay with ovaries from day 10 mice is on record as “dose-dependent increases”.

B2: CCN3: CCN growth factor protein (protein, UniProt P48745 32-357, looked up)
CCN family member 3: TQRCPPQCPGRCPATPPTCAPGVRAVLDGCSCCLVCARQRGESCSDLEPCDESSGLYCDRSADPSNQTGICTAVEGDNCVFDGVIYRSGEKFQPSCKFQCTCRDGQIGCVPRCQLDVLLPEPNCPAPRKVEVPGECCEKWICGPDEEDSLGGLTLAAYRPEATLGVEVSDSSVNCIEQTTEWTACSKSCGMGFSTRVTNRNRQCEMLKQTRLCMVRPCEQEPEQPTDKKGKKCLRTKKSLKAIHLQFKNCTSLHTYKPRFCGVCSDGRCCTPHNTKTIQAEFQCSPGQIVKKPVMVIGTCTCHTNCPKNNEAFLQELELKTTRGKM
For the molecule B2, the ovarian explant weights entry in the assay on ovaries from day 10 mice was “dose-dependent increases”.

B3: CCN2: CCN growth factor protein, acts downstream of disrupted Hippo signaling (protein, UniProt P29279 27-349, looked up)
CCN family member 2: QNCSGPCRCPDEPAPRCPAGVSLVLDGCGCCRVCAKQLGELCTERDPCDPHKGLFCHFGSPANRKIGVCTAKDGAPCIFGGTVYRSGESFQSSCKYQCTCLDGAVGCMPLCSMDVRLPSPDCPFPRRVKLPGKCCEEWVCDEPKDQTVVGPALAAYRLEDTFGPDPTMIRANCLVQTTEWSACSKTCGMGISTRVTNDNASCRLEKQSRLCMVRPCEADLEENIKKGKKCIRTPKISKPIKFELSGCTSMKTYRAKFCGVCTDGRCCTPHRTTTLPVEFKCPDGEVMKKNMMFIKTCACHYNCPGDNDIFESLYYRKMYGDMA
As to B3, the ovarian explant weights result in the assay with ovaries from day 10 mice is given as “dose-dependent increases”.

B4: CCN5: CCN growth factor protein (protein, UniProt O76076 24-250, looked up)
CCN family member 5: QLCPTPCTCPWPPPRCPLGVPLVLDGCGCCRVCARRLGEPCDQLHVCDASQGLVCQPGAGPGGRGALCLLAEDDSSCEVNGRLYREGETFQPHCSIRCRCEDGGFTCVPLCSEDVRLPSWDCPHPRRVEVLGKCCPEWVCGQGGGLGTQPLPAQGPQFSGLVSSLPPGVPCPEWSTAWGPCSTTCGLGMATRVSNQNRFCRLETQRRLCLSRPCPPSRGRSPQNSAF
As for B4, the ovarian explant weights result in the assay on ovaries from day 10 mice is “dose-dependent increases”.
